{"source": "ChEMBL document CHEMBL1201862", "about": "“PubChem BioAssay data set” (2004)", "test_in_all_cases": "inhibition of tumour cell growth, NCI panel, 48 h", "key": {"HCC 2998": {"system": "HCC 2998"}, "U-251": {"system": "U-251"}, "T47D": {"system": "T47D"}, "KM12": {"system": "KM12"}, "SK-MEL-5": {"system": "SK-MEL-5"}, "HOP-62": {"system": "HOP-62"}, "SK-MEL-28": {"system": "SK-MEL-28"}, "HT-29": {"system": "HT-29"}, "BT-549": {"system": "BT-549"}, "LOX IMVI": {"system": "LOX IMVI"}, "786-0": {"system": "786-0"}, "SNB-75": {"system": "SNB-75"}, "OVCAR-3": {"system": "OVCAR-3"}, "SF-295": {"system": "SF-295"}, "IGROV-1": {"system": "IGROV-1"}, "OVCAR-4": {"system": "OVCAR-4"}, "SF-268": {"system": "SF-268"}, "SNB-19": {"system": "SNB-19"}, "SN12C": {"system": "SN12C"}, "NCI/ADR-RES": {"system": "NCI/ADR-RES"}, "DU-145": {"system": "DU-145"}, "HOP-92": {"system": "HOP-92"}, "Malme-3M": {"system": "Malme-3M"}, "CAKI-1": {"system": "CAKI-1"}, "HCT-116": {"system": "HCT-116"}, "MDA-N": {"system": "MDA-N"}, "CCRF-CEM": {"system": "CCRF-CEM"}, "UO-31": {"system": "UO-31"}, "PC-3": {"system": "PC-3"}, "OVCAR-5": {"system": "OVCAR-5"}, "SR": {"system": "SR"}, "Hs-578T": {"system": "Hs-578T"}, "MCF7": {"system": "MCF7"}, "A549": {"system": "A549"}, "A498": {"system": "A498"}, "SW-620": {"system": "SW-620"}, "NCI-H23": {"system": "NCI-H23"}, "OVCAR-8": {"system": "OVCAR-8"}, "K562": {"system": "K562"}, "HCT-15": {"system": "HCT-15"}, "SK-OV-3": {"system": "SK-OV-3"}, "COLO 205": {"system": "COLO 205"}, "UACC-257": {"system": "UACC-257"}, "NCI-H460": {"system": "NCI-H460"}, "NCI-H522": {"system": "NCI-H522"}, "NCI-H226": {"system": "NCI-H226"}, "SF-539": {"system": "SF-539"}, "RXF 393": {"system": "RXF 393"}, "RPMI-8226": {"system": "RPMI-8226"}, "M14": {"system": "M14"}, "TK-10": {"system": "TK-10"}, "MDA-MB-231": {"system": "MDA-MB-231"}, "MOLT-4": {"system": "MOLT-4"}, "UACC-62": {"system": "UACC-62"}, "ACHN": {"system": "ACHN"}, "EKVX": {"system": "EKVX"}, "HL-60": {"system": "HL-60"}, "MDA-MB-435": {"system": "MDA-MB-435"}, "SK-MEL-2": {"system": "SK-MEL-2"}}, "note": "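Step 1: Grow cells in 96-well plates. Step 2: Expose to compound for 48 hours at 5 concentrations. Step 3: Interpolate endpoints linearly; if unreached, use highest concentration. The concentration for 50% growth inhibition is given as GI50.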 Calls of active or inactive are those of the source. Rule as the data show it: active = GI50 up to about 1.1 µM and inactive = higher."}
{"molecule": "CCOC(=O)C1=C(C)C(C(=O)OC)/C(=C/c2cccc3cccnc23)C1=O", "note": "(centres undefined)", "values": [{"measurement": "GI50", "setting": "HCC 2998", "result": "> 10 µM (inactive)"}, {"measurement": "GI50", "setting": "U-251", "result": "> 10 µM (inactive)"}, {"measurement": "GI50", "setting": "T47D", "result": "> 10 µM (inactive)"}, {"measurement": "GI50", "setting": "KM12", "result": "> 10 µM (inactive)"}, {"measurement": "GI50", "setting": "SK-MEL-5", "result": "> 10 µM (inactive)"}, {"measurement": "GI50", "setting": "HOP-62", "result": "> 10 µM (inactive)"}, {"measurement": "GI50", "setting": "SK-MEL-28", "result": "> 10 µM (inactive)"}, {"measurement": "GI50", "setting": "HT-29", "result": "> 10 µM (inactive)"}, {"measurement": "GI50", "setting": "BT-549", "result": "> 10 µM (inactive)"}, {"measurement": "GI50", "setting": "LOX IMVI", "result": "> 10 µM (inactive)"}, {"measurement": "GI50", "setting": "786-0", "result": "> 10 µM (inactive)"}, {"measurement": "GI50", "setting": "SNB-75", "result": "> 10 µM (inactive)"}, {"measurement": "GI50", "setting": "OVCAR-3", "result": "> 10 µM (inactive)"}, {"measurement": "GI50", "setting": "SF-295", "result": "> 10 µM (inactive)"}, {"measurement": "GI50", "setting": "IGROV-1", "result": "> 10 µM (inactive)"}, {"measurement": "GI50", "setting": "OVCAR-4", "result": "> 10 µM (inactive)"}, {"measurement": "GI50", "setting": "SF-268", "result": "> 10 µM (inactive)"}, {"measurement": "GI50", "setting": "SNB-19", "result": "> 10 µM (inactive)"}, {"measurement": "GI50", "setting": "SN12C", "result": "> 10 µM (inactive)"}, {"measurement": "GI50", "setting": "NCI/ADR-RES", "result": "> 10 µM (inactive)"}, {"measurement": "GI50", "setting": "DU-145", "result": "> 10 µM (inactive)"}, {"measurement": "GI50", "setting": "HOP-92", "result": "> 10 µM (inactive)"}, {"measurement": "GI50", "setting": "Malme-3M", "result": "> 10 µM (inactive)"}, {"measurement": "GI50", "setting": "CAKI-1", "result": "> 10 µM (inactive)"}, {"measurement": "GI50", "setting": "HCT-116", "result": "> 10 µM (inactive)"}, {"measurement": "GI50", "setting": "MDA-N", "result": "> 10 µM (inactive)"}, {"measurement": "GI50", "setting": "CCRF-CEM", "result": "> 10 µM (inactive)"}, {"measurement": "GI50", "setting": "UO-31", "result": "> 10 µM (inactive)"}, {"measurement": "GI50", "setting": "PC-3", "result": "> 10 µM (inactive)"}, {"measurement": "GI50", "setting": "OVCAR-5", "result": "> 10 µM (inactive)"}, {"measurement": "GI50", "setting": "SR", "result": "> 10 µM (inactive)"}, {"measurement": "GI50", "setting": "Hs-578T", "result": "> 10 µM (inactive)"}, {"measurement": "GI50", "setting": "MCF7", "result": "4.76 µM (inactive)"}, {"measurement": "GI50", "setting": "A549", "result": "> 10 µM (inactive)"}, {"measurement": "GI50", "setting": "A498", "result": "> 10 µM (inactive)"}, {"measurement": "GI50", "setting": "SW-620", "result": "> 10 µM (inactive)"}, {"measurement": "GI50", "setting": "NCI-H23", "result": "> 10 µM (inactive)"}, {"measurement": "GI50", "setting": "OVCAR-8", "result": "> 10 µM (inactive)"}, {"measurement": "GI50", "setting": "K562", "result": "> 10 µM (inactive)"}, {"measurement": "GI50", "setting": "HCT-15", "result": "> 10", "unit": "µM"}, {"measurement": "GI50", "setting": "SK-OV-3", "result": "> 10 µM (inactive)"}, {"measurement": "GI50", "setting": "COLO 205", "result": "> 10 µM (inactive)"}, {"measurement": "GI50", "setting": "UACC-257", "result": "> 10 µM (inactive)"}, {"measurement": "GI50", "setting": "NCI-H460", "result": "> 10 µM (inactive)"}, {"measurement": "GI50", "setting": "NCI-H522", "result": "> 10 µM (inactive)"}, {"measurement": "GI50", "setting": "NCI-H226", "result": "> 10 µM (inactive)"}, {"measurement": "GI50", "setting": "SF-539", "result": "> 10 µM (inactive)"}, {"measurement": "GI50", "setting": "RXF 393", "result": "> 10 µM (inactive)"}, {"measurement": "GI50", "setting": "RPMI-8226", "result": "> 10 µM (inactive)"}, {"measurement": "GI50", "setting": "M14", "result": "> 10 µM (inactive)"}, {"measurement": "GI50", "setting": "TK-10", "result": "> 10 µM (inactive)"}, {"measurement": "GI50", "setting": "MDA-MB-231", "result": "> 10 µM (inactive)"}, {"measurement": "GI50", "setting": "MOLT-4", "result": "> 10 µM (inactive)"}, {"measurement": "GI50", "setting": "UACC-62", "result": "> 10 µM (inactive)"}, {"measurement": "GI50", "setting": "ACHN", "result": "> 10 µM (inactive)"}, {"measurement": "GI50", "setting": "EKVX", "result": "> 10 µM (inactive)"}, {"measurement": "GI50", "setting": "HL-60", "result": "9.82 µM (inactive)"}, {"measurement": "GI50", "setting": "MDA-MB-435", "result": "> 10 µM (inactive)"}, {"measurement": "GI50", "setting": "SK-MEL-2", "result": "> 10 µM (inactive)"}]}
